Key:
AR-specific mRNA = test: AR mRNA silencing in PASC1 cells, qRT-PCR; format: cell-based, rat; settings: 48 h siRNA
Protocol: (§1) Primers were designed with http://www.ncbi.nlm.nih.gov/tools/primer-blast (Accessed on 28 February 2022) and were all intron-spanning. Total RNA was isolated from PASC1 with the RNeasy Mini-Kit (Qiagen, Hilden, Germany) and subjected to DNase I treatment as described by the manufacturer. The Reverse Transcription-System first strand cDNA synthesis kit (Invitrogen, Darmstadt, Germany) was used for cDNA synthesis, as recommended. Quantitative real-time PCR (qRT-PCR) amplification was performed in duplicate with iQ TM SYBR Green Super-mix (Bio-Rad; Munich; Germany) on the iCycler iQ System (Bio-Rad). After an initial heating at 94 °C for 5 min, 40 amplification cycles were performed consisting of an initial denaturation of the DNA double strands at 94 °C for 14 s, an annealing phase of the primers at 59 °C for 30 s, and extension of the primers for 15 s at 72 °C. A finalizing extension at 72 °C was carried out for 10 min. Gene expression was measured after reaching the ct value and calculated using the Delta–Delta Ct method. Detection of GAPDH-specific mRNA/cDNA served as normalization of the quantification. Oligonucleotides used in the qRT-PCR, their annealing position, and the expected size of the amplificates are listed in Supplementary Table S2. […]

AR protein = AR protein silencing in PASC1 cells, immunofluorescence; format: cell-based, rat; settings: 48 h siRNA
Protocol: PASC1 cells were plated at a density of 3.0 × 10^4 on 24-well plates (1 mL/well) and incubated 48 h at 37 °C and 5% CO2 until a confluence of roughly 80% was reached. Cells were rinsed with DPBS and fixed with 100% ice-cold methanol (Roth, Karlsruhe, Germany) on ice for 10 min directly or after stimulation with vehicle, 10 nM testosterone, or 1 µM P1 for 24 h. Cells were then washed with DPBS three times for 5 min, and then incubated in blocking solution (PBS with 3% BSA and 0.3% Triton X-100, both from Sigma-Aldrich) for 1 h at room temperature. The blocking solution was replaced by fresh blocking solution containing the primary antibodies for detection of either AR, p-Erk1/2, p-CREB/p-ATF-1, claudin-1 (Cldn-1), or zonula occludens-1 (ZO-1) (Supplementary Table S1) and incubated overnight at 4 °C. […] After washing 3 times with DPBS, images were obtained using an inverse Olympus IX81 microscope equipped with a fluorescence system. A total of 30 cells from 3 independent experiments (30 × 3) localized closest to the diagonals of the square optical field were selected and the manually surrounded green fluorescence was quantified by ImageJ (available at http://rsbweb.nih.gov/ij/, last accessed 28 February 2022) following the protocol of the software provider. The data obtained were analyzed by GraphPad Prism5 (GraphPad Software, Inc., La Jolla, CA, USA). […]

[1] = tested on: androgen binding site of ZIP9; test: T-BSA-FITC plasma membrane labeling of PASC1 cells and its displacement; settings: PASC1 cells, n = 28
Protocol: PASC1 cells were cultured as described above in 24-well plates at a density of 3 × 10^3 cells/well until reaching a confluence of approximately 80%. The cells were then treated with either 10 nM testosterone or 1 µM of P1 for 1 h. Controls received only the testosterone vehicle (ethanol). […] The medium was then removed by aspiration. In order to label nuclei, cells were fixed at room temperature with 3.7% formaldehyde that contained 20 ng of 4,6-diamino-2-phenylindole (DAPI). After 15 min, the formaldehyde/DAPI solution was removed by aspiration. Cells were washed with Dulbecco’s phosphate-buffered saline (DPBS, Gibco, Schwerte, Germany) and then overlayed with 400 µL PBS before imaging. Images were taken by an inverse Olympus IX81 microscope (Olympus, Hamburg, Germany).

ZIP9-specific mRNA = test: ZIP9 mRNA silencing in PASC1 cells, qRT-PCR; format: cell-based, rat; settings: 48 h siRNA
Protocol: as §1

ZIP9 protein = ZIP9 protein silencing in PASC1 cells, immunofluorescence; format: cell-based, rat; settings: 48 h siRNA
[2] = tested on: androgen binding site ZIP9 of L6 myoblasts; settings: cited from earlier work
[3] = tested on: androgen binding site ZIP9 of the Sertoli cell line 93RS2; parameters: method as in PMID 35053053, PMID 35053017; settings: 93RS2 cells; cited from earlier work

For “AR-siRNA: 5′CCGGAAAUGUUAUGAAGCAtt3′ plus 5′ UGCUUCAUAACAUUUCCGGag 3′ (AR-siRNA for AR silencing) (chain 1 CCGGAAAUGUUAUGAAGCATT; chain 2 UGCUUCAUAACAUUUCCGGAG; Commercial Silencer Select siRNA, lowercase 3' overhang letters not explained, further chemistry not given here)”, the “Expression of AR-specific mRNA” value (AR-specific mRNA) was “greatly suppressed” and the “Expression of AR protein” value (AR protein) was “also prevented”.

For “BSA-FITC: BSA-FITC (lacking testosterone)”, the “Membrane labeling by BSA-FITC (non-specific binding)” value ([1]; 10 µM BSA-FITC, pH 7.2, 20 min, room temperature) was “failed to label the membrane structure”.

With “ZIP9-directed siRNA: 5′ GGAUUAAGUAAGAGCAGUAtt3′ and 5′ UACUGCUCUUACUUAAUCCta 3′ (ZIP9-siRNA for ZIP9 silencing) (chain 1 GGAUUAAGUAAGAGCAGUATT; chain 2 UACUGCUCUUACUUAAUCCTA; Commercial Silencer Select siRNA, lowercase 3' overhang letters not explained, further chemistry not given here)” the “Expression of ZIP9 mRNA” value (ZIP9-specific mRNA) was “similarly successful in preventing expression” and the “Expression of ZIP9 protein” value (ZIP9 protein) was “similarly successful in preventing expression”.

For “testosterone 3-(O-carboxymethyl)-oxime:bovine serum albumin-fluorescein isothiocyanate conjugate [T-BSA-FITC]”, the Membrane labeling ([1]; 10 µM T-BSA-FITC, pH 7.2, 20 min, room temperature, nc-siRNA treated, fluorescence) is listed as “label the surface of PASC1 cells”, the “Membrane labeling after ZIP9 knockdown” value ([1]; ZIP9 expression suppressed by siRNA, 10 µM T-BSA-FITC) is listed as “suppression of its expression by siRNA prevented the binding of T-BSA-FITC” and the “Labeling of androgen binding site of ZIP9” value [2] is listed as “suitable to label the androgen binding site ZIP9 of the Sertoli cell line 93RS2 and also of L6 myoblasts”. For the same substance, the “Labeling of androgen binding site of ZIP9” value [3] was “suitable to label the androgen binding site ZIP9 of the Sertoli cell line 93RS2”.
